For 16 molecules, TGI results are on record in PubChem BioAssay (NCI).

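Following 48 hours of exposure in 96-well plates, responses at five concentrations were used to interpolate endpoints linearly. At the TGI there is no net growth.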 Where only a bound is given, the exact number is not on record here.

Test in all cases: NCI-60 cell line screen, 48 h
For assay [1], the system named is K-562 leukemia.
In assay [2] the test system is NCI-H226 lung.
In assay [3] the test system is SF-539 CNS.
The subject of assay [4] is OVCAR-3 ovarian.
Assay [5] deals with NCI-H23 lung.
Assay [6] relates to MCF7 breast.
The subject of assay [7] is HOP-62 NSCLC.
Assay [8] relates to ACHN renal.
The subject of assay [9] is SK-MEL-2 melanoma.
Assay [10] deals with UACC-257 melanoma.
Assay [11] has as its system A549 NSCLC.
Assay [12] concerns RXF 393 renal.
Assay [13] relates to RPMI-8226 leukemia.
The test system of assay [14] is A498 renal.
In assay [15] the test system is M14 melanoma.
The subject of assay [16] is TK-10 renal.
Assay [17] relates to SW-620 colon.
The test system of assay [18] is SN12C renal.
For assay [19], the system named is SNB-75 CNS.

With `COc1ccccc1N1C(=O)/C(=C\c2cc(OC)c(OC)c(OC)c2)S(=O)(=O)C1c1ccccc1` (configuration not stated), the TGI was over 100 µM in [1]; over 100 µM in assay [2]; 68 µM in assay [3]; over 100 µM in assay [4]; over 100 µM in [5]; over 100 µM in assay [6]. Also, the TGI is over 100 µM in assay [7]; over 100 µM in assay [8]; over 100 µM in assay [9]; over 100 µM in [10]; over 100 µM in [11]; 61.1 µM in assay [12]. Also, the TGI in assay [13] is 57.1 µM; in assay [14], over 100 µM; in [15] it was over 100 µM; in [16], over 100 µM; in assay [17], over 100 µM; in assay [18], over 100 µM.

`O=C(/C=C/c1ccccc1)CCC1C(=O)NC(=O)NC1=O`: the TGI in [1], in assay [2], in [3], in assay [4], in assay [5] and in assay [6] was over 100 µM in each case. Further, the TGI in [8], in assay [9], in [10], in assay [11], in [13] and in [14] was over 100 µM in each case. Besides, the TGI in [15], in assay [19], in assay [16], in [17] and in [18] was over 100 µM throughout.

As to `Cc1ccc(S(=O)(=O)n2cnc(CC(NC(=O)C3CCC(=O)N3C(=O)OCc3ccccc3)C(=O)N3CCCC3C(=O)NN)c2)cc1` (configuration not stated), the TGI in assay [1], in assay [2], in assay [5], in assay [6], in assay [7] and in assay [8] was over 100 µM in each case. The TGI in assay [9], in [10], in [11], in assay [13], in [14] and in assay [15] was over 100 µM each time. In addition, the TGI in assay [19], in assay [16], in assay [17] and in [18] was over 100 µM in each case.

For the molecule `C/C1=C\CC[C@@]2(C)O[C@@H]2[C@H]2OC(=O)C(C)C2C[C@H]1O` (some centres not stated), the TGI in assay [1], in assay [5], in assay [6], in assay [8], in assay [9] and in [10] was over 100 µM each time. Further, the TGI in assay [11], in assay [12], in assay [13], in assay [15], in [19] and in [16] was over 100 µM in each case. The TGI in assay [17] and in assay [18] was over 100 µM in each case.

As to `CCOC(=O)c1c(-c2ccccc2)[nH]c2ccc(Cl)cc2c1=O`, the TGI was over 100 µM in assay [1]; over 100 µM in assay [2]; over 100 µM in [3]; 38.9 µM in assay [4]; over 100 µM in [5]; over 100 µM in [6]. In addition, the TGI in assay [7] was over 100 µM; in assay [8], 93.2 µM; in assay [9] it was over 100 µM; in assay [10], over 100 µM; in [11] it was over 100 µM; in assay [12], over 100 µM. Moreover, the TGI in assay [13], in assay [15], in assay [19], in assay [16], in assay [17] and in assay [18] was over 100 µM throughout.

For `O=c1[nH]n(Cc2ccccc2CCl)c2ccc([N+](=O)[O-])cc12`, the TGI in assay [1], in assay [2], in assay [3], in [4], in assay [5] and in assay [6] was over 100 µM each time. The TGI in assay [7], in assay [8], in assay [9], in assay [10], in assay [11] and in [12] was over 100 µM each time. The TGI in assay [13], in assay [14], in assay [15], in assay [16], in [17] and in assay [18] was over 100 µM in each case.

Consider `Cc1ccccc1NC(=O)/C(C#N)=N\Nc1nc[nH]c1C(N)=O`, for which the TGI in assay [1], in assay [2], in [4], in assay [5], in [6] and in [7] was over 100 µM in each case. In addition, the TGI in [8], in assay [9], in assay [10], in assay [11], in [12] and in assay [13] was over 100 µM throughout. For the same molecule, the TGI in assay [15], in [19], in assay [16], in assay [17] and in assay [18] was over 100 µM each time.

For `Cc1n[nH]c(=O)n1/N=C/c1cccnc1`, the TGI in assay [1], in assay [2], in assay [3], in [4], in [5] and in assay [6] was over 100 µM in each case. Moreover, the TGI in assay [7], in assay [8], in assay [9], in assay [10], in [11] and in assay [13] was over 100 µM each time. Moreover, the TGI in [14], in assay [15], in [16], in assay [17] and in [18] was over 100 µM in each case.

Take `COC(=O)c1c(C(=O)OC)c(C(c2ccccc2)c2ccccc2)n(-c2ccccc2)c1Cl`: the TGI in assay [1], in assay [2], in assay [3], in assay [4], in assay [5] and in assay [6] was over 10 µM in each case. The TGI in assay [7], in assay [8], in assay [10], in [11], in assay [12] and in assay [13] was over 10 µM throughout. For the same molecule, the TGI in assay [14], in assay [15], in [16], in [17] and in assay [18] was over 10 µM in each case.

Consider `C=CC1(c2ccc(Br)cc2)OCCCO1`, for which the TGI in assay [1], in [2], in [3], in assay [4], in assay [5] and in [6] was over 100 µM throughout. Besides, the TGI in assay [7], in [8], in [9], in assay [10], in assay [11] and in assay [12] was over 100 µM each time. Also, the TGI in assay [13], in [15], in [19], in assay [16], in [17] and in assay [18] was over 100 µM in each case.

As to `COc1cc(/C=C2\N=C(c3ccccc3)N(/N=C/c3cc4cc(C)ccc4nc3Cl)C2=O)cc(OC)c1OC`, the TGI in assay [1] is over 100 µM; in assay [3], 41.8 µM; in [4], over 100 µM; in [6], over 100 µM; in assay [7], over 100 µM; in assay [8], over 100 µM. For the same molecule, the TGI was 48 µM in [9]; over 100 µM in assay [10]; over 100 µM in assay [11]; 42.8 µM in assay [13]; over 100 µM in [14]; over 100 µM in assay [15]. The TGI in [19] is 61.5 µM; in [16], over 100 µM; in assay [17], over 100 µM; in assay [18], over 100 µM.

As to `COc1ccc(C(CC(=O)c2ccccc2)C(=O)c2ccc3c(c2)OCO3)cc1` (configuration not stated), the TGI in [1], in [2], in assay [5], in [6], in [7] and in [8] was over 100 µM in each case. Further, the TGI in assay [9], in assay [10], in assay [11], in assay [13], in [14] and in assay [15] was over 100 µM each time. For the same molecule, the TGI in assay [19], in assay [16], in [17] and in assay [18] was over 100 µM in each case.

In the case of `COc1c(O)cc2c(c1O)C1O[C@H](CO)C(O)[C@H](O)[C@H]1OC2=O` (some centres not stated), the TGI in assay [1], in assay [2], in assay [3], in assay [4], in assay [5] and in [6] was over 100 µM throughout. The TGI in [7], in assay [8], in assay [9], in assay [10], in assay [11] and in assay [12] was over 100 µM each time. Besides, the TGI in [13], in assay [15], in assay [19], in [16], in assay [17] and in assay [18] was over 100 µM each time.

For `O=S1(=O)OCCCOS(=O)(=O)C1Br`, the TGI in assay [2], in assay [3], in [4], in [5], in assay [6] and in [7] was over 100 µM each time. The TGI in [8], in assay [9], in [10], in [11], in [12] and in assay [13] was over 100 µM each time. In addition, the TGI in [15], in assay [19], in assay [16], in assay [17] and in assay [18] was over 100 µM in each case.

In the case of `Cc1cc(NCC2CC/C(=C\C=C\c3ccccc3)C2=O)no1` (configuration not stated), the TGI in assay [1], in [2], in assay [3], in assay [4], in assay [5] and in assay [6] was over 100 µM each time. Moreover, the TGI is over 100 µM in [7]; over 100 µM in assay [8]; over 100 µM in assay [10]; over 100 µM in assay [11]; over 100 µM in assay [12]; 88.8 µM in [13]. The TGI in assay [14], in [15], in assay [16], in assay [17] and in assay [18] was over 100 µM each time.

For `Nc1c(Cl)c([N+](=O)[O-])cc2c1OCCCCO2`, the TGI in assay [1], in assay [2], in assay [3], in assay [4], in [5] and in assay [6] was over 100 µM each time. Also, the TGI in assay [7], in assay [8], in [9], in assay [10], in assay [11] and in assay [12] was over 100 µM throughout. In addition, the TGI in [13] was over 100 µM; in [15] it was over 100 µM; in assay [19], 93 µM; in assay [16], over 100 µM; in assay [17] it was over 100 µM; in assay [18], over 100 µM.
